Measured values taken from US20250179077A1, “QUINAZOLINE COMPOUNDS AND USES THEREOF AS INHIBITORS OF MUTANT KRAS PROTEINS” (AMGEN INC., priority 2022, published 2025).
pIC50: −log10 of the molar value. Read-outs that look alike come from different tables or passages of the source. Blank lines part the entries; values can stand above or below the compound they belong to.

How the values were obtained:
[1] = target: His-tagged KRAS G12D protein (Homo sapiens, UniProt P01116, G12D); assay: KRAS G12D TR-FRET Assay; format: binding
Chain of His-tagged KRAS G12D protein (P01116 1-188 isoform P01116-2 G12D): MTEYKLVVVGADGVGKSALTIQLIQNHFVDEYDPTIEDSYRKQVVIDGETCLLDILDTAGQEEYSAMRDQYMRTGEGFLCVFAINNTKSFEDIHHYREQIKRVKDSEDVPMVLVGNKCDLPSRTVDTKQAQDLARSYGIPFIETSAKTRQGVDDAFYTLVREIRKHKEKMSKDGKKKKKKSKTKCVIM
Experimental: KRAS G12D TR-FRET Assay Compounds of interest were prepared in a dose-response titration in DMSO, and 80 nL were added via Labcyte Echo to each well of a 384-well plate (Perkin Elmer 6008280). The His-tagged KRAS G12D protein (Amgen) was diluted to 20 nM in Assay Buffer (20 mM HEPES, pH 7.4, 10 mM MgCl2, 50 mM NaCl, 0.1% BSA, 0.01% Tween-20, 10 μM GDP) and 2 uL was added to the appropriate wells of the 384-well plate. The plate was incubated for 30 minutes at room temperature. Biotinylated KRPep-2d substrate (Amgen) was diluted to 20 nM in Assay Buffer and 2 μL was added to all wells and incubated for 1 hour at room temperature. Detection Reagent (0.4 nM LANCE Eu-W1024 Anti-6×-His (Perkin Elmer AD0401), 5 nM streptavidin-d2 (Cisbio 610SADLA)) was prepared in Assay Buffer, then 4 μL was added to the plate and incubated for 1 hour at room temperature. Plates were read using PerkinElmer EnVision (ex: 320 nm, em1: 665 nm, em2: 615 nm) and em1/em2 data was used to generate curve fits using a 4-parameter logistic model to calculate IC50 values.

[2] = system: Phosphorylation of ERK1/2 in AsPC-1 cells; assay: Phospho-ERK1/2 MSD Assay; format: cell-based
Experimental: AsPC-1 (ATCC® CRL-1682™) cells were cultured in RPMI 1640 Medium (ThermoFisher Scientific 11875093) containing 10% fetal bovine serum (ThermoFisher Scientific 16000044) and Ix penicillin-streptomycin-glutamine (ThermoFisher Scientific 10378016). Sixteen hours prior to compound treatment, AsPC-1 cells were seeded in 96-well cell culture plates at a density of 25,000 cells/well and incubated at 37° C., 5% CO2. A compound dose-response titration was diluted in growth media, added to appropriate wells of a cell culture plate, and then incubated at 37° C., 5% CO2 for 2 h. Following compound treatment, cells were washed with ice-cold Dulbecco's phosphate-buffered saline, no Ca^2+ or Mg^2+ (ThermoFisher Scientific 14190144), and then lysed in RIPA buffer (50 mM Tris-HCl pH 7.5, 1% Igepal, 0.5% sodium deoxycholate, 150 mM NaCl, and 0.5% sodium dodecyl sulfate) containing protease inhibitors (Roche 4693132001) and phosphatase inhibitors (Roche 4906837001). Phosphorylation of ERK1/2 in compound-treated lysates was assayed using Phospho-ERK1/2 Whole Cell Lysate kits (Meso Scale Discovery K151DWD) according to the manufacturer's protocol. Assay plates were read on a Meso Scale Discovery Sector Imager 6000, and data were analyzed using a 4-parameter logistic model to calculate IC50 values.

[3] = target: GDP-bound KRAS protein (aa 1-169), containing both G12D and C118A amino acid substitutions (Homo sapiens, UniProt P01116, C118A/G12D); assay: KRAS G12D Coupled Nucleotide Exchange Assay; format: biochemical
Chain of GDP-bound KRAS protein (aa 1-169), containing both G12D and C118A amino acid substitutions (P01116 1-169 isoform P01116-2 G12D/C118A): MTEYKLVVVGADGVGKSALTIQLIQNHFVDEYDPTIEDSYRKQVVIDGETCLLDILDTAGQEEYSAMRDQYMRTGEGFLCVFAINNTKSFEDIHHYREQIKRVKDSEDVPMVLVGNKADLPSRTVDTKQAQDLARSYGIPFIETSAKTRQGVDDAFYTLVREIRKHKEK
Experimental: KRAS G12D Coupled Nucleotide Exchange Assay
Following compound pre-incubation, purified SOS protein (aa 564-1049) and GTP (Roche 10106399001) were added to the assay wells and incubated for an additional 30 min. […] The assay plates were then read on a PerkinElmer EnVision Multilabel Reader, using AlphaScreen® technology, and data were analyzed using a 4-parameter logistic model to calculate IC50 values.

[4] = Homo sapiens, ASPC1, 2 h, read-out: 2 h p-ERK (AsPC-1 cells), IC50, AsPC-1 cells, 2 h compound treatment
[5] = read-out: 2 h p-ERK (AsPC-1 cells), IC50, AsPC-1 cells, 2 h compound treatment

SMILES: C/C=C\c1c(Cl)cc2[nH]ncc2c1-c1c(F)cc2c(N3CCC[C@@](C)(O)C3)nc(OC[C@@]34CCCN3C[C@H](F)C4)nc2c1F (single isomer, unassigned) [Example 120]
pIC50 [1]: 8.40
pIC50 [2, 4]: 7.46
IC50 [3]: 0.003 µM

SMILES: CCc1c(F)ccc2cc(O)cc(-c3c(F)cc4c(N5CCC(O)C5)nc(OC[C@@]56CCCN5C[C@H](F)C6)nc4c3F)c12 (stereo partly drawn) [Example 19, 1-(7-(8-Ethyl-7-fluoro-3-hydroxynaphthalen-1-yl)-6,8-difluoro-2-(((2R,7a.S)-2-fluorotetrahydro-1H-pyrrolizin-7a(5H)-yl)methoxy)quinazolin-4-yl)pyrrolidin-3-ol]
pIC50 [1]: 6.95
pIC50 [2, 4]: 5.11
IC50 [3]: 0.037 µM

SMILES: C#Cc1c(F)ccc2cc(O)cc(-c3c(F)cc4c(N5CCC[C@@](C)(O)C5)nc(OC[C@@]56CCCN5C[C@H](F)C6)nc4c3F)c12 (single isomer, unassigned) [Example 14]
pIC50 [1]: 9.00
pIC50 [2, 5]: 8.52
IC50 [3]: 0.002 µM

SMILES: C[C@@]1(O)CCCN(c2nc(OC[C@@]34CCCN3C[C@H](F)C4)nc3c(F)c(-c4cc(N)cc(Cl)c4C(F)(F)F)ccc23)C1 [Example 60, (R)-1-(7-(5-Amino-3-chloro-2-(trifluoromethyl)phenyl)-8-fluoro-2-(((2R,7aS)-2-fluorotetrahydro-1H-pyrrolizin-7a(5H)-yl)methoxy)quinazolin-4-yl)-3-methylpiperidin-3-ol]
pIC50 [1]: 7.82
pIC50 [2, 4]: 5.93
IC50 [3]: 0.012 µM

SMILES: Oc1cc(Cl)c(C2CC2)c(-c2ccc3c(N4CCCOCC4)nc(OC[C@@]45CCCN4C[C@H](F)C5)nc3c2F)c1 [Example 7, 3-Chloro-4-cyclopropyl-5-(8-fluoro-2-(((2R,7a.S)-2-fluorotetrahydro-1H-pyrrolizin-7a(5H)-yl)methoxy)-4-(1,4-oxazepan-4-yl)quinazolin-7-yl)phenol]
pIC50 [1]: 7.92
pIC50 [2, 4]: 6.09
IC50 [3]: 0.011 µM

SMILES: Oc1cc(-c2ccc3c(N4CCCOCC4)nc(OC[C@]45CCCN4C[C@H](F)C5)nc3c2F)c2ccccc2c1 [Example 41, 4-(8-Fluoro-2-(((2R,7aR)-2-fluorotetrahydro-1H-pyrrolizin-7a(5H)-yl)methoxy)-4-(1,4-oxazepan-4-yl)quinazolin-7-yl)naphthalen-2-ol]
pIC50 [1]: 7.64
pIC50 [2, 4]: 5.83
IC50 [3]: 0.023 µM

SMILES: CCc1c(F)ccc2cc(O)cc(-c3c(F)cc4c(N5C[C@@H]6CO[C@@H](C6)C5)nc(OC[C@@]56CCCN5C[C@H](F)C6)nc4c3F)c12 (racemic) [Example 36, rac-4-(4-((1R,5S)-6-Oxa-3-azabicyclo[3.2.1]octan-3-yl)-6,8-difluoro-2-(((2R,7aS)-2-fluorotetrahydro-1H-pyrrolizin-7a(5H)-yl)methoxy)quinazolin-7-yl)-5-ethyl-6-fluoronaphthalen-2-ol]
pIC50 [1]: 7.70
pIC50 [2, 4]: 5.97
IC50 [3]: 0.012 µM

SMILES: CCc1c(F)ccc2cc(O)cc(-c3ccc4c(N5CCCC(O)(C(F)F)C5)nc(OC[C@@]56CCCN5C[C@H](F)C6)nc4c3F)c12 (single isomer, unassigned) [Example 23]
pIC50 [1]: 8.70
pIC50 [2, 4]: 6.80
IC50 [3]: 0.002 µM

SMILES: C[C@@]1(O)CCCN(c2nc(OC[C@@]34CCCN3C[C@H](F)C4)nc3c(F)c(-c4cc(O)cc(Cl)c4C4CC4)c(F)cc23)C1 [Example 6, (3R)-1-(7-(3-Chloro-2-cyclopropyl-5-hydroxyphenyl)-6,8-difluoro-2-(((2R,7aS)-2-fluorotetrahydro-1H-pyrrolizin-7a(5H)-yl)methoxy)quinazolin-4-yl)-3-methylpiperidin-3-ol]
pIC50 [1]: 8.30
pIC50 [2, 4]: 6.91
IC50 [3]: 0.004 µM

SMILES: CCc1c(F)ccc2cc(O)cc(-c3ccc4c(N5CCC[C@@](C)(O)C5)nc(OC[C@@]56CCCN5C[C@H](F)C6)nc4c3F)c12 [Example 1, (R)-1-(7-(8-Ethyl-7-fluoro-3-hydroxynaphthalen-1-yl)-8-fluoro-2-(((2R,7aS)-2-fluorotetrahydro-1H-pyrrolizin-7a(5H)-yl)methoxy)quinazolin-4-yl)-3-methylpiperidin-3-ol]
pIC50 [1]: 8.70
pIC50 [2, 4]: 7.32
IC50 [3]: 0.003 µM

SMILES: N#Cc1cc2c(N3CCCOCC3)nc(OC[C@@]34CCCN3C[C@H](F)C4)nc2c(F)c1-c1cc(O)cc2ccccc12 [Example 44, 8-Fluoro-2-(((2R,7aS)-2-fluorotetrahydro-1H-pyrrolizin-7a(5H)-yl)methoxy)-7-(3-hydroxynaphthalen-1-yl)-4-(1,4-oxazepan-4-yl)quinazoline-6-carbonitrile]
pIC50 [1]: 7.30
pIC50 [2, 4]: 5.73
IC50 [3]: 0.028 µM

More lines, now with the values ahead:

pIC50 [1]: 8.30
pIC50 [2, 4]: 6.90
IC50 [3]: 0.004 µM
SMILES: Cc1cc2[nH]ncc2c(-c2ccc3c(N4CCC[C@](O)(CF)C4)nc(OC[C@@]45CCCN4C[C@H](F)C5)nc3c2F)c1[C@H]1C[C@H]1C (atropisomer, axis not shown; (aS)) [Example 118, (R)-1-((S)-8-Fluoro-2-(((2R,7aS)-2-fluorotetrahydro-1H-pyrrolizin-7a(5H)-yl)methoxy)-7-(6-methyl-5-((1S,2R)-2-methylcyclopropyl)-1H-indazol-4-yl)quinazolin-4-yl)-3-(fluoromethyl)piperidin-3-ol]

pIC50 [1]: 8.30
pIC50 [2, 4]: 7.62
IC50 [3]: 0.002 µM
SMILES: C[C@@]1(O)COCCN(c2nc(OC[C@@]34CCCN3C[C@H](F)C4)nc3c(F)c(-c4cc(O)cc5ccc(F)c(Cl)c45)ccc23)C1 (single isomer, unassigned) [Example 82]

pIC50 [1]: 6.95
pIC50 [2, 5]: 5.85
IC50 [3]: 0.014 µM
SMILES: CCc1c(F)ccc2cc(N)cc(-c3c(F)cc4c(N5CCOCC(C)(O)C5)nc(OC[C@@]56CCCN5C[C@H](F)C6)nc4c3F)c12 (single isomer, unassigned) [Example 71]

pIC50 [1]: 8.40
pIC50 [2, 4]: 6.78
IC50 [3]: 0.003 µM
SMILES: Cc1cc2[nH]ncc2c(-c2ccc3c(N4CCC[C@@](C)(O)C4)nc(OC[C@@]45CCCN4C[C@H](F)C5)nc3c2F)c1[C@H]1C[C@H]1C (single isomer, unassigned) [Example 107]

pIC50 [1]: 6.93
pIC50 [2, 4]: 5.98
IC50 [3]: 0.010 µM
SMILES: CCc1c(F)ccc2cc(N)cc(-c3ccc4c(N5CCC[C@@](C)(O)C5)nc(OC[C@@]56CCCN5C[C@H](F)C6)nc4c3F)c12 [Example 74, (R)-1-(7-(3-Amino-8-ethyl-7-fluoronaphthalen-1-yl)-8-fluoro-2-(((2R,7aS)-2-fluorotetrahydro-1H-pyrrolizin-7a(5H)-yl)methoxy)quinazolin-4-yl)-3-methylpiperidin-3-ol]

pIC50 [1]: 8.40
pIC50 [2, 4]: 7.00
IC50 [3]: 0.004 µM
SMILES: C/C=C\c1c(Cl)cc2[nH]ncc2c1-c1ccc2c(N3CCC[C@](O)(CF)C3)nc(OC[C@@]34CCCN3C[C@H](F)C4)nc2c1F (single isomer, unassigned) [Example 109]

pIC50 [1]: 7.77
pIC50 [2, 4]: 6.55
IC50 [3]: 0.002 µM
SMILES: CCc1c(F)ccc2cc(N)cc(-c3c(F)cc4c(N5CCC[C@@](C)(O)C5)nc(OC[C@@]56CCCN5C[C@H](F)C6)nc4c3F)c12 (single isomer, unassigned) [Example 62]

pIC50 [1]: 8.30
pIC50 [2, 4]: 7.14
IC50 [3]: 0.002 µM
SMILES: O=C1NC[C@]2(CCCN(c3nc(OC[C@@]45CCCN4C[C@H](F)C5)nc4c(F)c(-c5cc(O)cc(Cl)c5C5CC5)ccc34)C2)O1 [Example 84, (S)-7-(7-(3-Chloro-2-cyclopropyl-5-hydroxyphenyl)-8-fluoro-2-(((2R,7aS)-2-fluorotetrahydro-1H-pyrrolizin-7a(5H)-yl)methoxy)quinazolin-4-yl)-1-oxa-3,7-diazaspiro[4.5]decan-2-one]
